Experimental data published in US20100261719A1, “CHEMICAL COMPOUNDS” (priority 2007, published 2010).
pIC50: −log10 of the molar value.

Target: Escherichia coli DNA gyrase A/B tetramer (Escherichia coli, UniProt P0AES4+P0AES6)
Assay: DNA gyrase supercoiling activity fluorescence polarisation assay
Type: biochemical
Description: In a black, 384-well polystyrene assay plate, 30 microliters/well of 5 nM Escherichia coli DNA gyrase A/B tetramer and 130 micrograms/ml of topologically relaxed plasmid containing the triplex-forming sequence […] in an assay buffer consisting of 35 mM Tris-HCl (pH 7.5), 24 mM KCl, 4 mM MgCl2, 2 mM dithiothreitol, 1.8 mM spermidine, 5% (v/v) glycerol, 200 nM bovine serum albumin, 0.8% dimethylsulfoxide, and 0.3 mM ATP may be incubated at ambient temperature for (typically 30 minutes) in the absence or presence of 5-10 different concentrations of test compound. The supercoiling reactions may be quenched by the addition of 10 microliters/well of 40 nM oligodeoxynucleotide probe in 3× triplex-forming buffer consisting of 150 mM NaCl, and 150 mM sodium acetate at pH 3.5. The oligodeoxynucleotide probe may be 5′-BODIPY-FL-labeled TTCTTCTTC. After 60 minutes, the fluorescence anisotropy of the BODIPY-FL may be measured in a Tecan Ultra plate reader, using 485 nm excitation and 535 nm emission filters equipped with polarizers. The IC50 may be determined by nonliner regression using two control reactions. The first contains no test compound but 0.8% DMSO (100% activity) while the second control reaction contains 5 uM Ciprofloxacin and 0.8% DMSO (0% activity).
When tested in an in-vitro assay based on the DNA gyrase supercoiling activity fluorescence polarisation assay described above, the E. coli DNA gyrase supercoiling IC50 assay inhibitory activity of the following Examples was measured at the indicated IC50.

Chain of Escherichia coli DNA gyrase A/B tetramer (P0AES4 whole entry, one chain of several): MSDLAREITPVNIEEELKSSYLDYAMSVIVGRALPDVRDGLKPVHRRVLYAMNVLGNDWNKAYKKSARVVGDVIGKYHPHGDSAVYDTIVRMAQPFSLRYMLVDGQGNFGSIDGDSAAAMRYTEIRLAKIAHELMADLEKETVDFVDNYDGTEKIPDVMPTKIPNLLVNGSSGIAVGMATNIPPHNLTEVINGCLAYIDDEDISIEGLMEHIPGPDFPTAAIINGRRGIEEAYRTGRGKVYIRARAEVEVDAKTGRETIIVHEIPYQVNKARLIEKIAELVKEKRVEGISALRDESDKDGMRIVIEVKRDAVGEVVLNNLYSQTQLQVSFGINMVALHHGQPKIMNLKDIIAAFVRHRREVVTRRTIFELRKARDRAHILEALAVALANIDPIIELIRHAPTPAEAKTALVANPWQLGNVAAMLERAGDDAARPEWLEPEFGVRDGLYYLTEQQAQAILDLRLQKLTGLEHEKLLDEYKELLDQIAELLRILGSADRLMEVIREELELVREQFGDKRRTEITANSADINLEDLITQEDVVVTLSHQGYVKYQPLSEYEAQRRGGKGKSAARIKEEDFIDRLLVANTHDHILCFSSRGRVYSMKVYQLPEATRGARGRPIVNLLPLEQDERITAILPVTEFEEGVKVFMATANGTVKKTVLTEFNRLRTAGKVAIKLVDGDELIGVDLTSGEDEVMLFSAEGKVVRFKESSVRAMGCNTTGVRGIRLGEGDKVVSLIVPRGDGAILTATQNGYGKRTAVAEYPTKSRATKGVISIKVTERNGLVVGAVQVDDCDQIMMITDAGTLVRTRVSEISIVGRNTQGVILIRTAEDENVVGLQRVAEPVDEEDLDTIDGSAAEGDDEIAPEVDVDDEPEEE

| SMILES | pIC50 |
| --- | --- |
| C[C@@H]1CN2c3cc(F)c(C#Cc4cccs4)cc3CC3(C(=O)NC(=O)NC3=O)[C@H]2[C@H](C)O1 (relative stereo) [Example 28, (2R,4S,4aS)-rel-9-Fluoro-2,4-dimethyl-8-(thiophen-2-ylethynyl)-1,2,4,4a-tetrahydro-2′H,6H-spiro[1,4-oxazino[4,3-a]quinoline-5,5′-pyrimidine]-2′,4′,6′(1′H,3′H)-trione] | 5.95 |
| C[C@H]1CN2c3c(cc(C#Cc4ncc[nH]4)c(F)c3F)CC3(C(=O)NC(=O)NC3=O)[C@@H]2[C@@H](C)O1 (relative stereo) [Example 16, (2S,4R,4aR)-rel-9,10-Difluoro-8-(1H-imidazol-2-ylethynyl)-2,4-dimethyl-1,2,4,4a-tetrahydro-2′H,6H-spiro[1,4-oxazino[4,3-a]quinoline-5,5′-pyrimidine]-2′,4′,6′(1′H,3′H)-trione] | 6.16 |
| C[C@@H]1CN2c3c(cc(C(=O)NC4CCS(=O)(=O)C4)c(F)c3F)CC3(C(=O)NC(=O)NC3=O)[C@H]2[C@H](C)O1 (relative stereo) [Example 62, (2R,4S,4aS)-rel-N-(1,1-Dioxidotetrahydrothiophen-3-yl)-9,10-difluoro-2,4-dimethyl-2′,4′,6′-trioxo-1,1′,2,3′,4,4′,4a,6′-octahydro-2′H,6H-spiro[1,4-oxazino[4,3-a]quinoline-5,5′-pyrimidine]-8-carboxamide] | 5.15 |
| C[C@@H]1CN2c3c(cc(C(=O)NC4CCNC4)c(F)c3F)CC3(C(=O)NC(=O)NC3=O)[C@H]2[C@H](C)O1 (relative stereo) [Example 70, (2R,4S,4aS)-rel-9,10-Difluoro-2,4-dimethyl-2′,4′,6′-trioxo-N-(pyrrolidin-3-yl)-1,1′,2,3′,4,4′,4a,6′-octahydro-2′H,6H-spiro[1,4-oxazino[4,3-a]quinoline-5,5′-pyrimidine]-8-carboxamide] | 5.54 |
| C[C@H]1CN2c3c(cc(C#C[Si](C)(C)C)c(F)c3F)CC3(C(=O)NC(=O)NC3=O)[C@@H]2[C@@H](C)O1 (relative stereo) [Example 6, (2S,4R,4aR)-rel-9,10-Difluoro-2,4-dimethyl-8-[(trimethylsilyl)ethynyl]-1,2,4,4a-tetrahydro2′H,6H-spiro[1,4-oxazino[4,3-a]quinoline-5,5′-pyrimidine]-2′,4′,6′(1′H,3′H)-trione] | 5.49 |
| C[C@@H]1CN2c3ccc(NC(=O)N4CCNC4=O)cc3CC3(C(=O)NC(=O)NC3=O)[C@H]2[C@H](C)O1 (relative stereo) [Example 76, N-[(2R,4S,4aS)-rel-2,4-Dimethyl-2′,4′,6′-trioxo-1,1′,2,3′,4,4′,4a,6′-octahydro-2′H,6H-spiro[1,4-oxazino[4,3-a]quinoline-5,5′-pyrimidin]-8-yl]-2-oxoimidazolidine-1-carboxamide] | 4.78 |
| C[C@@H]1CN2c3c(F)cc(C#Cc4cccs4)cc3CC3(C(=O)NC(=O)NC3=O)[C@H]2[C@H](C)O1 (relative stereo) [Example 40, (2R,4S,4aS)-rel-10-Fluoro-2,4-dimethyl-8-(thiophen-2-ylethynyl)-1,2,4,4a-tetrahydro-2′H,6H-spiro[1,4-oxazino[4,3-a]quinoline-5,5′-pyrimidine]-2′,4′,6′(1′H,3′H)-trione] | 5.94 |
| C[C@@H]1CN2c3cc(F)c(C#Cc4nc5ccccc5o4)cc3CC3(C(=O)NC(=O)NC3=O)[C@H]2[C@H](C)O1 (relative stereo) [Example 35, (2R,4S,4aS)-rel-8-(1,3-Benzoxazol-2-ylethynyl)-9-fluoro-2,4-dimethyl-1,2,4,4a-tetrahydro-2′H,6H-spiro[1,4-oxazino[4,3-a]quinoline-5,5′-pyrimidine]-2′,4′,6′(1′H,3′H)-trione] | 5.83 |
| C[C@@H]1CN2c3ccc(NC(=O)N4CCCCC4)cc3CC3(C(=O)NC(=O)NC3=O)[C@H]2[C@H](C)O1 (relative stereo) [Example 74, N-[(2R,4S,4aS)-rel-2,4-Dimethyl-2′,4′,6′-trioxo-1,1′,2,3′,4,4′,4a,6′-octahydro-2′H,6H-spiro[1,4-oxazino[4,3-a]quinoline-5,5′-pyrimidin]-8-yl]piperidine-1-carboxamide] | 5.45 |
